# Experimental data taken from US10065990B2, “Cyclic peptide compound, and preparation method, pharmaceutical composition and use thereof” (HANGZHOU GUANYU BIO-MEDICAL CO., LTD, priority 2013, dated 2018).
# Read-outs that look alike come from different tables or passages of the source.
# Key:
# [1] = tested on: Huh-7 (human hepatoma cells); assay: MTT cancer cell growth inhibition; assay type: cell-based; details: MTT, 72 hours incubation, Huh-7 cells, read-out: GI50 Huh-7
# How it was run: (§1)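 MTT viability, 570 nm, GI50. Cells 1500/well; compound 72 h at final 10^−5–10^−10 M in triplicate.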
# [2] = tested on: BGC-823 (human gastric cancer cells); assay: MTT cancer cell growth inhibition; assay type: cell-based; details: MTT
# How it was run: as §1
# [3] = tested on: Bel-7402 (human hepatoma cells); assay: MTT cancer cell growth inhibition; assay type: cell-based; details: MTT, 72 hours incubation, Bel-7402 cells, read-out: GI50 Bel-7402
# How it was run: as §1
# [4] = tested on: A549 (human lung cancer cells); assay: MTT cancer cell growth inhibition; assay type: cell-based; details: Homo sapiens, A549, 72 h, MTT
# How it was run: as §1
# [5] = tested on: MCF-7 (human breast cancer cells); assay: MTT cancer cell growth inhibition; assay type: cell-based; details: Homo sapiens, MCF7, 72 h
# How it was run: as §1
# [6] = tested on: MOLT-4 (human acute lymphoblastic leukemia cells); assay: MTT cancer cell growth inhibition; assay type: cell-based; details: Homo sapiens, MOLT-4, 72 h, MTT
# How it was run: as §1
# [7] = tested on: PANC-1 (Pac-1, human pancreatic cancer cells); assay: MTT cancer cell growth inhibition; assay type: cell-based; details: Homo sapiens, PANC-1, 72 h, MTT
# How it was run: as §1
# [8] = tested on: U937 (human leukemia cells); assay: MTT cancer cell growth inhibition; assay type: cell-based; details: Homo sapiens, U-937, 72 h, MTT
# How it was run: as §1
# [9] = tested on: lncap (prostate cancer cells); assay: MTT cancer cell growth inhibition; assay type: cell-based; details: Homo sapiens, LNCaP, 72 h, MTT
# How it was run: as §1
# [10] = tested on: DU145 (human prostate cancer cells); assay: MTT cancer cell growth inhibition; assay type: cell-based; details: Homo sapiens, DU-145, 72 h, MTT
# How it was run: as §1
# HDAC1 = HDAC1 (Homo sapiens, UniProt Q13547); assay: HDAC biochemical activity measurement (fluorescent substrate deacetylation);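 further: fluorogenic acetyl-lysine substrate (20 µM) deacetylated by HDAC1, then developer releases fluorophore read at 360 nm excitation and 460 nm emission, inhibitor incubated 30 min at 37 °C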
# Sequence of HDAC1 (Q13547 whole entry, species assumed): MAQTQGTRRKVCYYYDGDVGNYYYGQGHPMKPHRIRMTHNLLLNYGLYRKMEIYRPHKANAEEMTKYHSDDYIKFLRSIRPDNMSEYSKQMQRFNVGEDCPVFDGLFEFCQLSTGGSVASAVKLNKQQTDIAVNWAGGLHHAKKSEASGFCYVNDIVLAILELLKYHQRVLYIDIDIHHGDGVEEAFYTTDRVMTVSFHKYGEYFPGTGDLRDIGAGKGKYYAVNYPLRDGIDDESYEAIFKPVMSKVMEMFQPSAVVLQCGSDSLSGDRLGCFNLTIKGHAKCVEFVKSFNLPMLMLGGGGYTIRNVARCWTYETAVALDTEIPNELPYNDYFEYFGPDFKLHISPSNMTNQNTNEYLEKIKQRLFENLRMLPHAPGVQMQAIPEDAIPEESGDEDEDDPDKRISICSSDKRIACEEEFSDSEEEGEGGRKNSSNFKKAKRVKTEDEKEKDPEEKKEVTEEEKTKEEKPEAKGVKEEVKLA
# HDAC8 = target: T1, HDAC8 (Homo sapiens, UniProt Q9BY41); assay: as above; details: 37° C. 30 minutes
# T1 sequence (Q9BY41 1-377): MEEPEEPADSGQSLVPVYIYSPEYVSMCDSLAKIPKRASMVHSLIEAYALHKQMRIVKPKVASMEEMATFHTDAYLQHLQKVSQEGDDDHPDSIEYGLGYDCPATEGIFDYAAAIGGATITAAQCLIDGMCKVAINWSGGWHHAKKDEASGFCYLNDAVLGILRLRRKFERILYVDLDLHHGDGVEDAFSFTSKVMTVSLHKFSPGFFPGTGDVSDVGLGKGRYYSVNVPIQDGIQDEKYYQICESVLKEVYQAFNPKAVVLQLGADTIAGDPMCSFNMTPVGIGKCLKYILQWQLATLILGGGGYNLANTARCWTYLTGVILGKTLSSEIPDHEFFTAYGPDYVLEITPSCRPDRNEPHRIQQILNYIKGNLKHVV
# HDAC3 = HDAC3 (Homo sapiens, UniProt O15379); assay: as above;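 further: fluorogenic acetyl-lysine substrate (20 µM) deacetylated by HDAC3, then developer added for 15 min at room temperature, release of fluorophore read at excitation 360 nm, emission 460 nm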
# Sequence of HDAC3 (O15379 whole entry, species assumed): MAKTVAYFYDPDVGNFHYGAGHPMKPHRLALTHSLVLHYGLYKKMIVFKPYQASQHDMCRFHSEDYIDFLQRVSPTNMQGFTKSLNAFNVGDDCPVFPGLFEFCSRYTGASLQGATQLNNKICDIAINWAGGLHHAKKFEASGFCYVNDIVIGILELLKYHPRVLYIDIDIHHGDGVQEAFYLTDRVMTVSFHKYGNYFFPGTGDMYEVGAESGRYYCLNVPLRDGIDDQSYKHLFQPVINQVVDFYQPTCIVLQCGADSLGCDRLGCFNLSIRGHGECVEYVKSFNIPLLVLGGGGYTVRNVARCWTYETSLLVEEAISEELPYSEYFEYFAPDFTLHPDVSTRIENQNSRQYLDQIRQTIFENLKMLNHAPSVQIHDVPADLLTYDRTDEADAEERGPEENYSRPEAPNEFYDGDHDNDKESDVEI
# Sequence of HDAC3 (Q9Y618 395-489 partner limits assumed, species assumed): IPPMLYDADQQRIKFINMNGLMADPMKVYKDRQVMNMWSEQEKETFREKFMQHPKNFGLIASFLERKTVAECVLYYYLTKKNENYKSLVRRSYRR
# [11] = Homo sapiens, BGC-823, 72 h, 72 hours incubation, read-out: GI50 BG
# [12] = 72 hours incubation, read-out: GI50 A54
# [13] = 72 hours incubation, read-out: GI50 MCF
# [14] = 72 hours incubation, read-out: GI50 Mol
# [15] = 72 hours incubation, read-out: GI50 PAN
# [16] = 72 hours incubation, read-out: GI50 U93
# [17] = 72 hours incubation, read-out: GI50 lnca
# [18] = 72 hours incubation, read-out: GI50 Du1
# [19] = HDAC1, 37° C. 30 minutes, read-out: IC50 HDAC1
# [20] = read-out: IC50 HDAC3, HDAC3, 37° C. 30 minutes
Compound,"GI50 ([1]; Homo sapiens, Huh-7, 72 h) [µM]","GI50 [2, 11] [µM]","GI50 ([3]; Homo sapiens, Bel-7402, 72 h) [µM]","GI50 [4, 12] [µM]","GI50 [5, 13] [µM]","GI50 [6, 14] [µM]","GI50 [7, 15] [µM]","GI50 [8, 16] [µM]","GI50 [9, 17] [µM]","GI50 [10, 18] [µM]",IC50 (HDAC1; [19]) [µM],IC50 (HDAC8) [µM],IC50 (HDAC3) [µM],IC50 (HDAC3; [20]) [µM],other results
C/C=C1\NC(=O)c2nc(ccc2F)CNC(=O)C[C@@H](/C=C/CCSC(=O)CCCCCCC)OC(=O)[C@H](CC)NC1=O [Example 54],0.034,0.04,0.051,0.06,0.06,0.03,0.05,0.04,0.03,0.02,0.074,0.034,0.034,,
C/C=C1\NC(=O)c2nc(ccc2F)CNC(=O)C[C@@H](/C=C/CCSC(=O)CCCCCCC)OC(=O)[C@H](C)NC1=O [Example 60],0.019,0.06,0.057,0.04,0.08,0.01,0.05,0.04,0.01,0.02,0.081,0.053,0.016,,
C/C=C1\NC(=O)c2cc(F)cc(n2)CNC(=O)C[C@@H](/C=C/CCSC=O)OC(=O)[C@H](C(C)C)NC1=O [Compound 52],0.031,0.05,0.091,0.05,0.06,0.03,0.09,0.06,0.03,0.02,0.045,0.053,,0.038,"IC50 (HDAC1; Table 3, column C, read-out: IC50 HDAC1, C (six-membered ring with substituents)): 0.045 µM"
C=C1NC(=O)c2cccc(n2)CNC(=O)C[C@@H](/C=C/CCSC(=O)CCCCCCC)OC(=O)[C@H](C(C)C)NC1=O [Compound 244],0.092,,0.029,,,,,,,,0.092,0.089,,0.032,"GI50 ([2]; Homo sapiens, BGC-823, 72 h, BGC-823 cells, 72 hours incubation, read-out: GI50 BG): 0.39 µM; GI50 ([2]; Homo sapiens, BGC-823, 72 h, 72 hours, present invention, read-out: GI50 BGC823, a): 0.39 µM; GI50 ([4]; A549 cells, 72 hours incubation, read-out: GI50 A54): 0.12 µM; GI50 ([4]; 72 hours, present invention, read-out: GI50 A549, a): 0.12 µM; GI50 ([5]; 72 hours, present invention, read-out: GI50 MCF7, a): 0.33 µM; GI50 ([5]; MCF-7 cells, 72 hours incubation, read-out: GI50 MCF): 0.33 µM; GI50 ([6]; MOLT-4 cells, 72 hours incubation, read-out: GI50 Mol): 0.11 µM; GI50 ([6]; 72 hours, present invention, read-out: GI50 Molt-4, a): 0.11 µM; GI50 ([7]; 72 hours, present invention, read-out: GI50 PANC-1, a): 0.77 µM; GI50 ([7]; PANC-1 cells, 72 hours incubation, read-out: GI50 PAN): 0.77 µM; GI50 ([8]; 72 hours, present invention, read-out: GI50 U937, a): 0.89 µM; GI50 ([8]; U937 cells, 72 hours incubation, read-out: GI50 U93): 0.89 µM; GI50 ([9]; 72 hours, present invention, read-out: GI50 lncap, a): 0.99 µM; GI50 ([9]; lncap cells, 72 hours incubation, read-out: GI50 lnca): 0.99 µM; GI50 ([10]; DU145 cells, 72 hours incubation, read-out: GI50 Du1): 0.95 µM; GI50 ([10]; 72 hours, present invention, read-out: GI50 Du145, a): 0.95 µM; IC50 (HDAC1; Table 2, read-out: IC50 HDAC1, a (compounds of the present invention)): < 0.1 µM"
C/C=C1\NC(=O)c2nc(ccc2F)CNC(=O)C[C@@H](/C=C/CCSC(C)=O)OC(=O)[C@H](C(C)C)NC1=O [Example 48],,,,0.06,0.06,0.03,0.04,0.02,0.03,0.02,0.081,0.014,0.047,,"GI50 [1]: 0.035 µM; GI50 ([2]; 72 hours incubation, read-out: GI50 BG): 0.08 µM; GI50 [3]: 0.042 µM"
